Measured values reported in publication PMC9814779, “A triple farnesoid X receptor and peroxisome proliferator-activated receptor α/δ activator reverses hepatic fibrosis in diet-induced NASH in mice” (Communications Chemistry, 2020).

How the values were obtained:
[1] = Microsomal stability assay; assay type: in vitro ADME, rat
[2] = molecular target: T1, human PPARδ ligand-binding domain (Gal4 chimera) (Homo sapiens, UniProt Q03181); experiment: Gal4 hybrid reporter gene assay, PPARδ; assay type: cell-based; set-up: Emax: dose or concentration left out as unconfirmed
T1 construct: coding for the hinge region and LBD of the canonical isoform of the respective nuclear receptor; expressed in transfected cells; host or cells: HEK293T
T1 sequence (Q03181 211-439 limits assumed): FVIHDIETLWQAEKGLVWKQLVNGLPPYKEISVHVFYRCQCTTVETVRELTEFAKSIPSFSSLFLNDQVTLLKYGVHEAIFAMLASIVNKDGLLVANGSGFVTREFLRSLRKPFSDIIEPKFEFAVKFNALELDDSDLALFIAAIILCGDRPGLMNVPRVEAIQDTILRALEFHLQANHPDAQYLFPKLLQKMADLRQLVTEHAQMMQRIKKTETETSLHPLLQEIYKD

[3] = molecular target: T2, human FXR:retinoid X receptor (RXR) heterodimer (Homo sapiens, UniProt Q96RI1); experiment: Full-length FXR reporter gene assay (BSEP response element) in HeLa cells; assay type: cell-based; set-up: Emax: dose or concentration left out as unconfirmed
T2 construct: pcDNA3-hFXR[32] and pSG5-hRXR[33] served for receptor overexpression in the full-length FXR assay; expressed in transfected cells; host or cells: HeLa

[4] = system: PPARδ-regulated genes in C2C12 cells; experiment: PPARδ-regulated gene expression in differentiated C2C12 cells (qRT-PCR); assay type: cell-based, murine; details: C2C12 myotubes, 1 μM, 8 h
Description: HepG2 cells (DSMZ) were grown in DMEM high glucose, supplemented with 10% FCS, 1 mM SP, penicillin (100 U/mL), and streptomycin (100 μg/mL) at 37 °C and 5% CO2 and seeded in 6-well plates (2 × 10^6 per well). After 24 h, medium was changed to Minimal Essential Medium supplemented with 1% charcoal-stripped FCS, penicillin (100 U/mL), streptomycin (100 μg/mL), and 2 mM L-glutamine. After an additional 24 h, cells were incubated with test compound 41 (0.1 µM, 0.3 µM, 1 μM), OCA (1 μM), or elafibranor (1 µM) dissolved in the same medium with 0.1% DMSO or medium with 0.1% DMSO alone as untreated control for 12 h, harvested, washed with cold phosphate-buffered saline (PBS), and then directly used for RNA extraction. C2C12 cells (American Type Culture Collection, ATCC) were grown in DMEM high glucose, supplemented with 10% FCS, 1 mM SP, penicillin (100 U/mL), and streptomycin (100 μg/mL) at 37 °C and 5% CO2 and seeded in 6-well plates (1 × 10^6 per well). […] FXR- and PPAR-regulated gene expression was then studied by quantitative real-time PCR (qRT-PCR) analysis with a StepOnePlus System (Life Technologies, Carlsbad, CA, USA) using PowerSYBRGreen (Life Technologies; 12.5 μL per well). […] Data were analyzed by the comparative ΔΔCT method with glyceraldehyde 3-phosphate dehydrogenase (GAPDH) as reference gene. […]

[5] = 10 μM, rat liver microsomes, 37 °C, 41 n = 3, 7-EC n = 1

T2 sequence (P19793 whole entry): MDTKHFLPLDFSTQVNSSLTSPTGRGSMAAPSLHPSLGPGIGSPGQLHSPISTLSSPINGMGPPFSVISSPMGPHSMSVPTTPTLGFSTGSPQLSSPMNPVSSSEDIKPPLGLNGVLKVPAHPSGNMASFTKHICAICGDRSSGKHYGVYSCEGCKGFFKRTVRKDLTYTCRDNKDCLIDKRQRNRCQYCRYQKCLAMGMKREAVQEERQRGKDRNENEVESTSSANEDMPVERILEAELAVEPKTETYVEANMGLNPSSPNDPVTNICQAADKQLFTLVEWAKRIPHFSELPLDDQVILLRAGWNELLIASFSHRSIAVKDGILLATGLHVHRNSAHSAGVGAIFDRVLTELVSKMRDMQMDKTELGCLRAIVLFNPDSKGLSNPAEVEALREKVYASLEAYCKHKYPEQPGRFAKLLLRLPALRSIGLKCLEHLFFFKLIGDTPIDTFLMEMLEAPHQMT
T2 sequence (Q96RI1 whole entry): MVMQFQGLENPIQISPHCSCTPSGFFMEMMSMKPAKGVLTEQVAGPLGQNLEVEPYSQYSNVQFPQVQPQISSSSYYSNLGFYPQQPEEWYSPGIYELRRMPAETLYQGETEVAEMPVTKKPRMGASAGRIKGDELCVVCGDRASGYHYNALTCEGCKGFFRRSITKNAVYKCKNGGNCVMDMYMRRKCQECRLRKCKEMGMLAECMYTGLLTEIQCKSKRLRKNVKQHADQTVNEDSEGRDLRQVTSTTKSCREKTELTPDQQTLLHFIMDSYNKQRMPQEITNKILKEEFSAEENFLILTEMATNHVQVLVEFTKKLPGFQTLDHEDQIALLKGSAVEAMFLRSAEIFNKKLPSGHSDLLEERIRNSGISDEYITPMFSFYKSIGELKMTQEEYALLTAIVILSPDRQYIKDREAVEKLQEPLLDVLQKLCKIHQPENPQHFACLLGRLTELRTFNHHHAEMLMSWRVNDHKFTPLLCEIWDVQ

CC(C)(C)c1ccc(C(=O)Nc2cccc(CCC(=O)O)c2)c(NC(=O)c2ccc(-c3ccco3)cc2)c1 [compound 41, 3-(3-[4-{tert-Butyl}-2-{4-(2-furyl)}benzamido]phenyl)propanoic acid]
percent of remaining compound, 15 min [1, 5]: 95 ± 3%
percent of remaining compound, 30 min [1, 5]: 95 ± 2%
percent of remaining compound, 60 min [1, 5]: 93 ± 2%
stability against microsomal degradation ([1]; in words): very high stability against microsomal degradation
EC50 ([2]; EC50 [μM] PPARδ, HEK293T, mean ± SEM, n = 3): 0.14 ± 0.01 µM
EC50 ([2]; PPARδ EC50, as stated in text): 0.141 µM
Emax ([2]; read-out: max. rel. act. PPARδ): 34%
Emax ([3]; HeLa, read-out: max. rel. act. FXR): 19%
EC50 ([3]; HeLa, mean ± SEM, n = 3, read-out: EC50 [μM] FXR): 0.015 ± 0.002 µM
FXR activation efficacy compared to OCA ([3]; reporter gene assay and mRNA expression levels): approximately 1/5
upregulation of PCK and GLUT3 mRNA [4]: comparable efficacy as the selective PPARδ agonist L165,041
effect on LPL expression ([4]; compared with L165,041): less pronounced
